Columns and labels:
[1] = tested on: mRNA expressed from the genes (A) to (D) in rat liver; assay: Behavior of genes (mRNA expression level, oligo-DNA microarray) in rat liver after 28-day oral administration; format: in vivo
In short: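 Rat liver RNA after 28 days of daily gavage dosing (male F344, 5 weeks old, four per group). A change reaching 1.5-fold, or 1/1.5, against solvent control scores as significant; opposite direction versus another carcinogen scores as not significant.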

[2] = tested on: rodent; settings: classification C+/C−; cited from earlier work

O=[N+]([O-])c1ccc2ccc3cccc4ccc1c2c34 [TS064, 1-Nitropyrene]
Behavior of gene caused by administration of chemical substance ([1]; Gene No. 154, Rn.185941, group (C)): − | Behavior of gene caused by administration of chemical substance ([1]; Gene No. 533, Rn.106184, group (C)): − | Behavior of gene caused by administration of chemical substance ([1]; Gene No. 725, Rn.108075, group (C)): − | Behavior of gene caused by administration of chemical substance ([1]; Gene No. 813, Rn.201760, group (C)): − | Behavior of gene caused by administration of chemical substance ([1]; Gene No. 893, Rn.164817, group (C)): − | Behavior of gene caused by administration of chemical substance ([1]; Gene No. 1119, Rn.9757, group (C)): − | Behavior of gene caused by administration of chemical substance ([1]; Gene No. 1131, Rn.144946, group (C)): − | Behavior of gene caused by administration of chemical substance ([1]; Gene No. 1163, Rn.11766, group (C)): − | Behavior of gene caused by administration of chemical substance ([1]; Gene No. 1334, Rn.120914, group (C)): − | Behavior of gene caused by administration of chemical substance ([1]; Gene No. 1494, Rn.1430, group (B)): − | Behavior of gene caused by administration of chemical substance ([1]; Gene No. 1562, Rn.14744, group (C)): − | Behavior of gene caused by administration of chemical substance ([1]; Gene No. 1741, Rn.1647, group (C)): − | Behavior of gene caused by administration of chemical substance ([1]; Gene No. 1993, Rn.18728, group (C)): − | Behavior of gene caused by administration of chemical substance ([1]; Gene No. 2026, Rn.167075, group (A)): − | Behavior of gene caused by administration of chemical substance ([1]; Gene No. 2045, Rn.19329, group (B)): − | Behavior of gene caused by administration of chemical substance ([1]; Gene No. 2203, Rn.21240, group (B)): + | Behavior of gene caused by administration of chemical substance ([1]; Gene No. 2494, Rn.23969, group (C)): − | Behavior of gene caused by administration of chemical substance ([1]; Gene No. 2546, Rn.24561, group (C)): − | Behavior of gene caused by administration of chemical substance ([1]; Gene No. 3776, Rn.43232, group (C)): − | Behavior of gene caused by administration of chemical substance ([1]; Gene No. 3929, Rn.4620, group (C)): − | Behavior of gene caused by administration of chemical substance ([1]; Gene No. 4095, Rn.119024, group (C)): − | Behavior of gene caused by administration of chemical substance ([1]; Gene No. 4218, Rn.167075, group (A)): − | Behavior of gene caused by administration of chemical substance ([1]; Gene No. 4846, Rn.144554, group (A)): − | Behavior of gene caused by administration of chemical substance ([1]; Gene No. 4973, Rn.118529, group (C)): − | Behavior of gene caused by administration of chemical substance ([1]; Gene No. 5600, Rn.9836, group (A)): − | Behavior of gene caused by administration of chemical substance ([1]; Gene No. 5634, Rn.9862, group (C)): − | Behavior of gene caused by administration of chemical substance ([1]; Gene No. 5726, Rn.9939, group (D)): − | Behavior of gene caused by administration of chemical substance ([1]; Gene No. 5878, Rn.143213, group (C)): − | Behavior of gene caused by administration of chemical substance ([1]; Gene No. 6026, Rn.167685, group (C)): − | Behavior of gene caused by administration of chemical substance ([1]; Gene No. 6182, Rn.5834, group (A)): − | Behavior of gene caused by administration of chemical substance ([1]; Gene No. 6303, Rn.123063, group (C)): − | Behavior of gene caused by administration of chemical substance ([1]; Gene No. 6620, Rn.120914, group (C)): − | Behavior of gene caused by administration of chemical substance ([1]; Gene No. 6742, Rn.9779, group (C)): − | Carcinogenicity [2]: C+

From patent US20110039721A1, “METHOD FOR PREDICTION ABOUT CARCINOGENICITY OF SUBSTANCE IN RODENT” (Chemicals Evaluation and Research Institute, priority 2007, published 2011)
